# From ChEMBL document CHEMBL4190383, “Hit discovery of Mycobacterium tuberculosis inosine 5'-monophosphate dehydrogenase, GuaB2, inhibitors” (Bioorg Med Chem Lett, 2018)
# Activity calls are given as the source filed them. The rule behind the calls is not given here.
# Tests used:
# [1] = test system: Mycobacterium tuberculosis; test: Antimicrobial activity against Mycobacterium tuberculosis H37Rv by alamar blue assay; format: functional
# Cryptococcus neoformans = test: Growth inhibition of Cryptococcus neoformans var. grubii at 32 ug/ml; format: functional; details: read-out: GI
# Klebsiella pneumoniae = test: Growth inhibition of Klebsiella pneumoniae at 32 ug/ml; format: functional; details: read-out: GI
# [2] = target: Inosine-5'-monophosphate dehydrogenase 2 (Homo sapiens) (UniProt P12268); test: Inhibition of human IMPDH2 at 10 uM
# Candida albicans = test: Growth inhibition of Candida albicans at 32 ug/ml; format: functional; details: read-out: GI
# [3] = test system: Mycobacterium tuberculosis; test: Inhibition of Mycobacterium tuberculosis GuaB2 at 50 uM
# [4] = test system: Mycobacterium tuberculosis; test: Antimicrobial activity against Mycobacterium tuberculosis SRMV2.6 H37Rv by alamar blue assay; format: functional
# Acinetobacter baumannii = test: Growth inhibition of Acinetobacter baumannii at 32 ug/ml; format: functional; details: read-out: GI
# Pseudomonas aeruginosa = test: Growth inhibition of Pseudomonas aeruginosa at 32 ug/ml; format: functional; details: read-out: GI
# Staphylococcus aureus = test: Growth inhibition of methicillin-resistant Staphylococcus aureus at 32 ug/ml; format: functional; details: read-out: GI
# Escherichia coli = test: Growth inhibition of Escherichia coli at 32 ug/ml; format: functional; details: read-out: GI
# [5] = Octanol/water partition coefficient , logP of the compound; format: physicochemical
# [6] = Inhibition of Mycobacterium tuberculosis GuaB2
# [7] = test system: Mycobacterium tuberculosis; test: Antimicrobial activity against Mycobacterium tuberculosis H37Rv in presence of 0.08 to 5 ng/ml anhydrotetracycline-induced guaB2 gene silencing by alamar blue assay; format: functional, organism-based
# [8] = Inhibition of Mycobacterium tuberculosis GuaB2 expressed in Escherichia coli BL21(DE3) using [2-2H]-IMP or [2-1H]-IMP and NAD+ incubated for 2 hrs by 1H NMR method
# Inosine-5'-monophosphate dehydrogenase 2 (Homo sapiens), sequence (P12268 2-514 limits assumed): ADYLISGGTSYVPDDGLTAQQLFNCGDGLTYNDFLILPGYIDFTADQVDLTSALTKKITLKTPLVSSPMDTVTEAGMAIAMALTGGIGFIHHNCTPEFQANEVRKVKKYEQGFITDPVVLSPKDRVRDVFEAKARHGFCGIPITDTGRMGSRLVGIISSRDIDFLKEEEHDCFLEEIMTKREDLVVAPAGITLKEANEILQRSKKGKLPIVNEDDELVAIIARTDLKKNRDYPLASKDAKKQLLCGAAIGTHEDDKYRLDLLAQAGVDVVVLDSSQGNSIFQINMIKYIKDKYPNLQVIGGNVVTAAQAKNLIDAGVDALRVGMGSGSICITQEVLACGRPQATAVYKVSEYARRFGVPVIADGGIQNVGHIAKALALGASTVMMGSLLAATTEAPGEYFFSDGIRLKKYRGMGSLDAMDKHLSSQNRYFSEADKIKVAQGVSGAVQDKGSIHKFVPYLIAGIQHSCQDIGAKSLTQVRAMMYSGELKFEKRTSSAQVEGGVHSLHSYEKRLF
smiles,measurement,setting,value
O=C(O)/C=C\C(=O)NCc1ccccc1,MIC90,[1],> 100 µM
CCOC(=O)C1CCN(CC(=O)Nc2ccc3c(c2)COC3=O)CC1,MIC90,[1],> 100 µM
Cc1ccc(NC(=O)Nn2c(C)nc3sccc3c2=O)cc1Cl,MIC90,[1],> 100 µM
COc1ccc(NC(=O)Nc2ccc(-c3cnco3)cc2)cc1,MIC90,[1],> 100 µM
Cc1nnc(-c2ccc(OCc3cnnn3Cc3ccc(F)cc3)cc2)o1,MIC90,[1],> 100 µM
COc1cccc(NC(=O)Nn2c(C)nc3sccc3c2=O)c1,MIC90,[1],> 100 µM
COc1cc(-c2oc3ccccc3c(=O)c2OCC(=O)Nc2ccc3c(c2)COC3=O)cc(OC)c1OC,MIC90,[1],> 100 µM
O=C(O)CCCC(=O)Nc1ccc(N2CC3(COC3)C2)c(F)c1,MIC90,[1],> 100 µM
O=C(O)CCC(=O)NCC1(N2CCOCC2)CCCCCC1,MIC90,[1],> 100 µM
Cc1nc2sccc2c(=O)n1NC(=O)Nc1ccc2c(c1)OCO2,MIC90,[1],> 100 µM
CC(=O)C1CCN(CC(=O)Nn2c(C)nc3sccc3c2=O)CC1,MIC90,[1],> 100 µM
CC(C)Cc1ccc(C(C)C(=O)Nc2ccc3c(c2)COC3=O)cc1 (stereo not drawn),MIC90,[1],> 100 µM
Cc1nnc(-c2ccc(OCc3cnnn3Cc3ccccc3F)cc2)o1,inhibition of growth at 32 µg/mL,Cryptococcus neoformans,-88.2%
same,inhibition of growth at 32 µg/mL,Klebsiella pneumoniae,-2.49%
same,inhibition,[2],0.1%
same,inhibition of growth at 32 µg/mL,Candida albicans,2.24%
same,inhibition,[3],71%
same,MIC90,[4],> 100 µM
same,inhibition of growth at 32 µg/mL,Acinetobacter baumannii,-8.76%
same,inhibition of growth at 32 µg/mL,Pseudomonas aeruginosa,0.96%
same,MIC90,[1],100 µM
same,inhibition of growth at 32 µg/mL,Staphylococcus aureus,7.55%
same,inhibition of growth at 32 µg/mL,Escherichia coli,-5.41%
same,logP,[5],2.5 to 3.5
COc1ccc(-c2ccc(NC(=O)CCC(=O)O)cc2)cn1,MIC90,[1],> 100 µM
CC1CC(NS(=O)(=O)c2ccc(NC(=O)CCC(=O)O)cc2)=NO1 (stereo not drawn),MIC90,[1],> 100 µM
CC(C(=O)Nc1ccc2c(c1)COC2=O)c1cccc(C(=O)c2ccccc2)c1 (stereo not drawn),MIC90,[1],100 µM
Cc1ccccc1NC(=S)Nc1ccc(-c2cc(Cl)cc(Cl)c2)cn1,MIC90,[1],> 100 µM
O=C(O)CCCC(=O)N1CCn2c(nnc2C(F)(F)F)C1,MIC90,[1],> 100 µM
CC(C(=O)Nc1ccc2c(c1)COC2=O)c1ccc(C(=O)c2ccccc2)cc1 (stereo not drawn),inhibition of growth at 32 µg/mL,Cryptococcus neoformans,-94.7%
same,inhibition of growth at 32 µg/mL,Klebsiella pneumoniae,15.6%
same,inhibition,[2],23%
same,IC50,[6],6.2 µM
same,inhibition of growth at 32 µg/mL,Candida albicans,5.25%
same,inhibition,[3],95.2%
same,MIC90,[4],100 µM
same,inhibition of growth at 32 µg/mL,Acinetobacter baumannii,1.89%
same,inhibition of growth at 32 µg/mL,Pseudomonas aeruginosa,3.08%
same,MIC90,[1],100 µM
same,inhibition of growth at 32 µg/mL,Staphylococcus aureus,25.2%
same,inhibition of growth at 32 µg/mL,Escherichia coli,-2.97%
same,Activity,[7],Active
same,logP,[5],3.67
COc1cc(/C=C/C(=O)c2cccc(OCC(=O)Nc3ccc4c(c3)COC4=O)c2)cc(OC)c1OC,MIC90,[1],> 100 µM
Cc1nc2sccc2c(=O)n1NC(=O)Nc1ccc([N+](=O)[O-])cc1,MIC90,[1],> 100 µM
COc1cccc(Cn2nncc2COc2ccc3ccccc3c2)c1,inhibition,[2],24.9%
same,inhibition,[3],52.4%
same,MIC90,[4],> 100 µM
same,MIC90,[1],50 µM
O=C(O)CCCC(=O)Nc1cc(-c2ccco2)[nH]n1,MIC90,[1],> 100 µM
O=C(COc1ccc(C(=O)/C=C/c2cccs2)cc1)Nc1ccc2c(c1)COC2=O,MIC90,[1],> 100 µM
Fc1ccccc1NC(=S)Nc1ccc(-c2cccc(Cl)c2)cn1,MIC90,[1],> 100 µM
O=C(Cn1c(-c2ccncc2)nc2cc(Br)cnc21)Nc1cccc2ccccc12,MIC90,[1],> 100 µM
O=C(O)/C=C\C(=O)NC12CC3CC(CC(C3)C1)C2,MIC90,[1],> 100 µM
COc1cc(NC(=O)Nn2c(C)nc3sccc3c2=O)cc(OC)c1,MIC90,[1],> 100 µM
Cc1nnc(-c2ccc(OCc3cnnn3Cc3ccc(C#N)cc3)cc2)o1,MIC90,[1],> 100 µM
O=C(COc1cccc2ccccc12)Nc1ccc2c(c1)COC2=O,MIC90,[1],> 100 µM
N#Cc1ccc(Cn2nncc2COc2cccc3ccccc23)cc1,inhibition,[2],14.8%
same,IC50,[6],175 µM
same,inhibition,[3],43.5%
same,MIC90,[4],> 100 µM
same,MIC90,[1],100 µM
Cc1nnc(-c2ccc(OCc3cnnn3Cc3cccc(Cl)c3)cc2)o1,inhibition of growth at 32 µg/mL,Cryptococcus neoformans,-76.2%
same,inhibition of growth at 32 µg/mL,Klebsiella pneumoniae,2.15%
same,inhibition,[2],0.1%
same,inhibition of growth at 32 µg/mL,Candida albicans,-0.27%
same,inhibition,[3],inactive
same,MIC90,[4],> 100 µM
same,inhibition of growth at 32 µg/mL,Acinetobacter baumannii,-12.1%
same,inhibition of growth at 32 µg/mL,Pseudomonas aeruginosa,5.84%
same,MIC90,[1],50 µM
same,inhibition of growth at 32 µg/mL,Staphylococcus aureus,10.3%
same,inhibition of growth at 32 µg/mL,Escherichia coli,-5.62%
COC(=O)c1ccc(OCC(=O)Nc2ccc3c(c2)COC3=O)cc1,MIC90,[1],> 100 µM
CC(C(=O)Nc1ccc2c(c1)COC2=O)c1ccc(-c2ccccc2)c(F)c1 (stereo not drawn),MIC90,[1],> 100 µM
Cc1nc2sccc2c(=O)n1NC(=O)/C=C/c1ccccc1,MIC90,[1],> 100 µM
N#Cc1ccc(Cn2nncc2COc2ccc3ccccc3c2)cc1,MIC90,[1],> 100 µM
CC(=O)c1ccc(OCC(=O)Nn2c(C)nc3sccc3c2=O)cc1,MIC90,[1],> 100 µM
Cc1ccc2nc(NC(=O)CCC(=O)O)sc2c1,MIC90,[1],> 100 µM
Fc1ccccc1NC(=S)Nc1ccc(-c2ccccc2Cl)cn1,MIC90,[1],> 100 µM
COc1ccc(NC(=O)CC/C(C)=C/Cc2c(O)c3c(c(C)c2OC)COC3=O)cc1,MIC90,[1],> 100 µM
O=C(CNc1ccc(F)cc1)Nc1ccc2c(c1)COC2=O,MIC90,[1],> 100 µM
COc1ccccc1NC(=O)Nn1c(C)nc2sccc2c1=O,MIC90,[1],> 100 µM
COc1cccc(Cn2nncc2COc2ccc(-c3nnc(C)o3)cc2)c1,inhibition of growth at 32 µg/mL,Cryptococcus neoformans,-59.4%
same,inhibition of growth at 32 µg/mL,Klebsiella pneumoniae,-4.35%
same,inhibition,[2],0.1%
same,inhibition of growth at 32 µg/mL,Candida albicans,3.07%
same,inhibition,[3],35%
same,MIC90,[4],100 µM
same,inhibition of growth at 32 µg/mL,Acinetobacter baumannii,-15.3%
same,inhibition of growth at 32 µg/mL,Pseudomonas aeruginosa,1.44%
same,MIC90,[1],50 µM
same,inhibition of growth at 32 µg/mL,Staphylococcus aureus,5.5%
same,inhibition of growth at 32 µg/mL,Escherichia coli,-7.43%
Cc1nnc(-c2ccc(OCc3cnnn3Cc3ccc(Cl)cc3Cl)cc2)o1,MIC90,[1],> 100 µM
COc1cc(C(=O)/C=C/c2cc(OC)c(OC)c(OC)c2)ccc1OCC(=O)Nc1ccc2c(c1)COC2=O,MIC90,[1],> 100 µM
O=C(O)CNC(=O)[C@@H]1C[C@H]1c1ccccc1,MIC90,[1],> 100 µM
Cc1cc(OCC(=O)Nc2ccc3c(c2)COC3=O)ccc1[N+](=O)[O-],MIC90,[1],> 100 µM
Cc1nc2sccc2c(=O)n1NC(=S)Nc1ccccc1F,MIC90,[1],> 100 µM
Cc1nc2sccc2c(=O)n1NC(=O)Nc1cccc([N+](=O)[O-])c1,MIC90,[1],> 100 µM
COc1c(C)c2c(c(O)c1C/C=C(\C)CCC(=O)N[C@@H](C)c1ccccc1)C(=O)OC2,MIC90,[1],> 100 µM
Cc1nnc(-c2ccc(OCc3cnnn3Cc3ccc(-c4ccccc4)cc3)cc2)o1,inhibition of growth at 32 µg/mL,Cryptococcus neoformans,-70.2%
same,inhibition of growth at 32 µg/mL,Klebsiella pneumoniae,2.97%
same,inhibition,[2],0.1%
same,inhibition of growth at 32 µg/mL,Candida albicans,-0.24%
same,inhibition,[3],72.6%
same,MIC90,[4],100 µM
same,inhibition of growth at 32 µg/mL,Acinetobacter baumannii,-14.1%
same,inhibition of growth at 32 µg/mL,Pseudomonas aeruginosa,7.93%
same,MIC90,[1],100 µM
same,inhibition of growth at 32 µg/mL,Staphylococcus aureus,14%
same,inhibition of growth at 32 µg/mL,Escherichia coli,-7.2%
same,logP,[5],> 4.5
Clc1ccc(Cn2nncc2COc2ccc3ccccc3c2)c(Cl)c1,MIC90,[1],> 100 µM
COc1ccc(NC(=O)Nn2c(C)nc3sccc3c2=O)cc1,MIC90,[1],> 100 µM
O=C(COc1ccc(C(=O)/C=C/c2ccc([N+](=O)[O-])cc2)cc1)Nc1ccc2c(c1)COC2=O,MIC90,[1],> 100 µM
Cc1nc2sccc2c(=O)n1NC(=O)Nc1ccc(F)cc1,MIC90,[1],> 100 µM
COc1cccc(NC(=O)Nn2c(C)nc3ccsc3c2=O)c1,MIC90,[1],> 100 µM
COc1ccc(NC(=O)Nn2c(C)nc3ccsc3c2=O)cc1,MIC90,[1],> 100 µM
O=C1OCc2cc(NC(=O)c3cccnc3Cl)ccc21,MIC90,[1],> 100 µM
COc1ccc2[nH]c(S(=O)(=O)Cc3ncc(C)c(OC)c3C)nc2c1 [OMEPRAZOLE SULFONE],MIC90,[1],> 100 µM
Clc1cccc(Cn2nncc2COc2ccc3ccccc3c2)c1,MIC90,[1],> 100 µM
COc1c(C)c2c(c(O)c1C/C=C(\C)CCC(=O)O)C(=O)OC2 [MYCOPHENOLIC ACID],inhibition of growth at 32 µg/mL,Cryptococcus neoformans,91.4%
same,inhibition of growth at 32 µg/mL,Klebsiella pneumoniae,3.78%
same,inhibition,[2],99.9%
same,IC50,[6],27.2 µM
same,inhibition of growth at 32 µg/mL,Candida albicans,96.9%
same,inhibition,[3],83%
same,MIC90,[4],50 µM
same,inhibition of growth at 32 µg/mL,Acinetobacter baumannii,19.4%
same,inhibition of growth at 32 µg/mL,Pseudomonas aeruginosa,18.8%
same,MIC90,[1],50 µM
same,inhibition of growth at 32 µg/mL,Staphylococcus aureus,52.4%
same,inhibition of growth at 32 µg/mL,Escherichia coli,2.37%
same,Activity,[7],Active
same,logP,[5],2.68
Cc1ccc(CNC(=O)/C=C\C(=O)O)cc1,MIC90,[1],> 100 µM
Fc1ccc(Cn2nncc2COc2ccc3ccccc3c2)cc1,MIC90,[1],> 100 µM
COc1ccc2[nH]c(S(=O)(=O)Cc3c(C)c(OC)c(C)c[n+]3[O-])nc2c1,MIC90,[1],> 100 µM
O=C(O)CCC(=O)NCc1ccc2c(c1)OCO2,MIC90,[1],> 100 µM
O=C(COc1ccc2ccccc2c1)Nc1ccc2c(c1)COC2=O,MIC90,[1],> 100 µM
O=C(Cn1c(-c2cscn2)nc2ccccc21)c1ccc(Br)cc1,Ki,[8],0.55 µM
O=C(COc1cc(Cl)ccc1Oc1ccc(Cl)cc1Cl)Nc1ccc2c(c1)COC2=O,MIC90,[1],> 100 µM
Fc1ccccc1Cn1nncc1COc1ccc2ccccc2c1,MIC90,[1],> 100 µM
O=C(O)COCC(=O)Nc1ccccc1C(=O)O,MIC90,[1],> 100 µM
Clc1ccc(Cn2nncc2COc2ccc3ccccc3c2)cc1,MIC90,[1],> 100 µM
O=C1OCc2cc(NS(=O)(=O)c3ccc([N+](=O)[O-])cc3)ccc21,MIC90,[1],> 100 µM
Cc1nnc(-c2ccc(OCc3cnnn3Cc3ccc(Cl)cc3)cc2)o1,MIC90,[1],> 100 µM
